In US20220256854A1, “PLANT TREATMENT COMPOSITION” (Croda International Plc, priority 2019, published 2022):

Assays:
Format in all cases: in vivo
[1] = tested on: Brachiaria decumbens; test: Glyphosate absorption in Brachiaria decumbens with Mn formulations (Example 1, Study 2); settings: glyphosate 3.5 l/ha; Mn formulation at 100 g/ha Mn where applied; four days after application
Description: (§1) Studies were conducted to evaluate the effect of an Mn formulation containing manganese on the absorption of glufosinate (Study 1) and glyphosate (Study 2) using Brachiaria decumbens as a model weed species.
Study 2. Seed of Brachiaria decumbens were planted into pots in a greenhouse during January 2015. This experiment was designed as a randomized complete block with six replications. Each plant was sprayed in a spray chamber with one of six treatments (Table 3) 25 days after planting.
The amount of glyphosate on the plant surface (not absorbed) and that penetrated plant tissue (absorbed) was measured four days after application (daa) of a treatment using chromatography and spectrometry.

[2] = tested on: weed species; test: Field trial, glyphosate with K formulation, weed control (Example 5, Study 3); settings: Glyphosate @ 2 l/ha, Formulation @ 5 l/ha where applied
Description: (§2) Three studies were conducted to evaluate the effect of a K formulation on glyphosate efficacy, as measured by the control of weed species.
Study 3. The trial was designed as a randomized complete block with two replications of six treatments (Table 15). The trial was planted at one location in Brazil during 2011. Weed control was assessed 14 and 25 daa.

[3] = tested on: Grass weeds; test: Field trial, glyphosate with Mn formulation, control of grass weeds (Example 2); settings: glyphosate 1 l/ha; V2 soybean growth stage; 7 daa; six locations in Brazil
Description: (§3) A study was carried out to evaluate the effect of an Mn formulation on the efficacy of glyphosate, as measured by the control of broadleaf and grass weed species.
(§4) The trial was designed as a randomized complete block with six replications of five treatments (Table 5). The trial was planted at each of six locations in Brazil during the 2015 season. All treatments were applied at the V2 soybean growth stage using backpack sprayers. Soybeans were sown at a rate consistent with locally recommended practices into plots that were approximately 4 m long and 5 m wide.
(§5) Data collected from a 1 m^2 area of each plot included the number of broadleaf and grass weeds, by genus and species, at the V2 soybean growth stage immediately prior to treatment application. The number of dead/damaged and undamaged weeds, by genus and species, was collected from the same 1 m^2 area of each plot 7 daa of a treatment. Treatment 2 (glyphosate alone) was used as the control.

[4] = tested on: individual grass and broadleaf weed species; test: Field trial, glyphosate with Formulation A, weed control, average over seven weed species (Example 3); settings: Formulation A @ 1 l/ha where applied, average of seven weed species
Description: (§6) A study was conducted to evaluate the effect of an Mn formulation on glyphosate efficacy, as measured by the control of individual grass and broadleaf weed species.
(§7) The trial was designed as a randomized complete block with three replications of four treatments (Table 7). The trial was planted at one location in Brazil during March 2016. Weed control was assessed 7, 14, and 28 daa.

[5] = tested on: weed species; test: Field trial, glyphosate with K formulation, weed control (Example 5, Study 2); settings: Glyphosate @ 2 l/ha, Formulation @ 5 l/ha where applied
Description: as §2
Study 2. The trial was designed as a randomized complete block with two replications of six treatments (Table 13). The trial was planted at one location in Brazil during 2011. Weed control was assessed 14 and 25 daa.

[6] = tested on: weed species; test: Field trial, glyphosate with K formulation, weed control (Example 5, Study 1); settings: Glyphosate @ 2 l/ha, no formulation
Description: as §2
Study 1. The trial was designed as a randomized complete block with two replications of five treatments (Table 11). The trial was planted at one location in Brazil during 2011. Weed control was assessed 14 and 25 daa.

[7] = tested on: Cenchrus echinatus; test: Field trial, glyphosate with Formulation A, weed control (Example 3); settings: Formulation A @ 1 l/ha where applied, mean of 7, 14, 28 daa
Description: as §6, §7

[8] = tested on: Digitaria horizontalis; test: as above; settings: Formulation A @ 1 l/ha where applied, mean of 7, 14, 28 daa
Description: as §6, §7

[9] = tested on: Brachiaria plantaginea; test: as above; settings: Formulation A @ 1 l/ha where applied, mean of 7, 14, 28 daa
Description: as §6, §7

[10] = tested on: Ipomoea acuminate; test: as above; settings: Formulation A @ 1 l/ha where applied, mean of 7, 14, 28 daa
Description: as §6, §7

[11] = tested on: Amaranthus retroflexus; test: as above; settings: Formulation A @ 1 l/ha where applied, mean of 7, 14, 28 daa
Description: as §6, §7

[12] = tested on: Euphorbia heterophylla; test: as above; settings: Formulation A @ 1 l/ha where applied, mean of 7, 14, 28 daa
Description: as §6, §7

[13] = tested on: Brachiaria decumbens; test: as above; settings: Formulation A @ 1 l/ha where applied, mean of 7, 14, 28 daa
Description: as §6, §7

[14] = tested on: Broadleaf weeds; test: Field trial, glyphosate with Mn formulation, control of broadleaf weeds (Example 2); settings: glyphosate 1 l/ha; V2 soybean growth stage; 7 daa; six locations in Brazil
Description: as §3, §4, §5

[15] = tested on: Cenchrus echinatus; test: Field trial, glufosinate with Formulation A, weed control (Example 4); settings: Formulation A @ 1 l/ha where applied, mean of 7, 14, 28 daa
Description: (§8) A study was conducted to evaluate the effect of an Mn formulation on glufosinate efficacy, as measured by the control of individual grass and broadleaf weed species.
(§9) The trial was designed as a randomized complete block with three replications of four treatments (Table 9). The trial was planted at one location in Brazil during March 2016. Weed control was assessed 7, 14, and 28 daa.

[16] = tested on: Digitaria horizontalis; test: as above; settings: Formulation A @ 1 l/ha where applied, mean of 7, 14, 28 daa
Description: as §8, §9

[17] = tested on: Brachiaria plantaginea; test: as above; settings: Formulation A @ 1 l/ha where applied, mean of 7, 14, 28 daa
Description: as §8, §9

[18] = tested on: Ipomoea acuminate; test: as above; settings: Formulation A @ 1 l/ha where applied, mean of 7, 14, 28 daa
Description: as §8, §9

[19] = tested on: Brachiaria decumbens; test: as above; settings: Formulation A @ 1 l/ha where applied, mean of 7, 14, 28 daa
Description: as §8, §9

[20] = tested on: individual grass and broadleaf weed species; test: Field trial, glufosinate with Formulation A, weed control, average over five weed species (Example 4); settings: Formulation A @ 1 l/ha where applied, average of five weed species
Description: as §8, §9

[21] = tested on: Brachiaria decumbens; test: Glufosinate absorption in Brachiaria decumbens with Mn formulations (Example 1, Study 1); settings: glufosinate 2 l/ha; Mn formulation at 100 g/ha Mn where applied; 36 hours after application
Description: as §1
Study 1. Seed of Brachiaria decumbens were planted into pots in a greenhouse during January 2015. This experiment was designed as a randomized complete block with six replications. Each plant was sprayed in a spray chamber with one of six treatments (Table 1) 19 days after planting.
The amount of glufosinate on the plant surface (not absorbed) and that penetrated plant tissue (absorbed) was measured 36 hours after application of a treatment using chromatography and spectrometry.

O=C(O)CNCP(=O)(O)O [Glyphosate, glyphosate]
Glyphosate Absorbed (%) [1]: 21.0% | Weed control (%) 14 daa ([2]; 14 daa): 85% | Weed control (%) 25 daa ([2]; 25 daa): 90% | Weed control (%) Grass weeds [3]: 97.7% | Weed control (%) Ave ([4]; Glyphosate @ 1 l/ha): 76.5% | Weed control (%) Ave ([4]; Glyphosate @ 2 l/ha): 85.5% | Weed control (%) 14 daa ([5]; 14 daa): 82.5% | Weed control (%) 25 daa ([5]; 25 daa): 96.5% | Weed control (%) 14 daa ([6]; 14 daa): 85% | Weed control (%) 25 daa ([6]; 25 daa): 96.5% | Weed control (%) CCHEC ([7]; Glyphosate @ 1 l/ha): 95.0% | Weed control (%) CCHEC ([7]; Glyphosate @ 2 l/ha): 98.7% | Weed control (%) DIGHO ([8]; Glyphosate @ 1 l/ha): 96.3% | Weed control (%) DIGHO ([8]; Glyphosate @ 2 l/ha): 99.0% | Weed control (%) BRAPL ([9]; Glyphosate @ 1 l/ha): 91.2% | Weed control (%) BRAPL ([9]; Glyphosate @ 2 l/ha): 95.9% | Weed control (%) IPOA ([10]; Glyphosate @ 1 l/ha): 34.8% | Weed control (%) IPOA ([10]; Glyphosate @ 2 l/ha): 52.6% | Weed control (%) AMARE ([11]; Glyphosate @ 1 l/ha): 69.6% | Weed control (%) AMARE ([11]; Glyphosate @ 2 l/ha): 84.7% | Weed control (%) EPHHL ([12]; Glyphosate @ 1 l/ha): 65.4% | Weed control (%) EPHHL ([12]; Glyphosate @ 2 l/ha): 77.4% | Weed control (%) BRADC ([13]; Glyphosate @ 1 l/ha): 83.0% | Weed control (%) BRADC ([13]; Glyphosate @ 2 l/ha): 90.2% | Weed control (%) Broadleaf weeds [14]: 83.8%

CP(=O)(O)CCC(N)C(=O)O (centres unmarked) [Glufosinate, glufosinate]
Weed control (%) CCHEC ([15]; Glufosinate @ 1.5 l/ha): 62.8% | Weed control (%) CCHEC ([15]; Glufosinate @ 2.5 l/ha): 78.7% | Weed control (%) DIGHO ([16]; Glufosinate @ 1.5 l/ha): 67.0% | Weed control (%) DIGHO ([16]; Glufosinate @ 2.5 l/ha): 82.9% | Weed control (%) BRAPL ([17]; Glufosinate @ 1.5 l/ha): 78.6% | Weed control (%) BRAPL ([17]; Glufosinate @ 2.5 l/ha): 88.2% | Weed control (%) IPOAC ([18]; Glufosinate @ 1.5 l/ha): 96.7% | Weed control (%) IPOAC ([18]; Glufosinate @ 2.5 l/ha): 100.0% | Weed control (%) BRADC ([19]; Glufosinate @ 1.5 l/ha): 89.3% | Weed control (%) BRADC ([19]; Glufosinate @ 2.5 l/ha): 91.1% | Weed control (%) Ave ([20]; Glufosinate @ 1.5 l/ha): 78.9% | Weed control (%) Ave ([20]; Glufosinate @ 2.5 l/ha): 88.2% | Glufosinate Absorbed (%) [21]: 24.0%
